# Tests used:
# [1] = mRNA encapsulation efficiency (Quant-IT RiboGreen RNA assay); type: physicochemical; settings: mRNA encapsulation efficiency of mRNA-LNP made with the ionizable lipid; average of two measurements
# Procedure, shortened: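 LNP samples read with RiboGreen reagent in TE buffer with or without 2% Triton X-100 (37 °C, 10 min) to release encapsulated mRNA. Fluorescence at λex 480/λem 520 nm; EE % calculated from the two readings, averaged over two independent measurements.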
# [2] = Size, polydispersity index and surface charge of mRNA-LNP (Malvern Zetasizer Nano ZS90); type: physicochemical; settings: for PDI / size (nm) Number: mRNA-LNP made with the ionizable lipid at its optimal formulation (Table 2); for size (nm) Number: diluted with PBS to 1 μg/mL mRNA; for Zeta (mV): surface charge of mRNA-LNP made with the ionizable lipid at its optimal formulation (Table 2)
# Procedure, shortened: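 Dynamic/electrophoretic light scattering of LNPs diluted in PBS to a final mRNA concentration of 1 μg/mL. Readouts were particle size, PDI and surface charge.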
# [3] = tested on: female C57BL/6 mice; experiment: Protein expression efficiency of fLuc mRNA-LNPs after intramuscular injection (IVIS whole-body luminescence); type: in vivo; settings: for Total flux 1 hour / Total flux 3 hours / Total flux 6 hours / Total flux 48 hours / Total flux 72 hours / Total flux: fLuc mRNA-LNP, intramuscular injection, luminescence at injection site, mice; for Total flux 1 hour: 1 hour after administration; for Total flux 3 hours: 3 hours after administration; for Total flux 6 hours: 6 hours after administration; for Total flux 48 hours: 48 hours after administration; for Total flux 72 hours: 72 hours after administration; for Total flux: after administration; for Fold increase in total flux at 3 h, MC3: relative to control LNP formulated with MC3; for Fold increase in total flux at 3 h, MC3 / Fold increase in total flux at 3 h, SM-102: 3 hours after intramuscular injection; for Fold increase in total flux at 3 h, SM-102: relative to control LNP formulated with SM-102
# Procedure, shortened: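 Female C57BL/6 mice (6-10 weeks, n≥4) got intramuscular fLuc mRNA-LNPs at 0.1-0.5 mg/kg mRNA. Injection-site luminescence was imaged under isoflurane at 1-72 h, 10 min after i.p. D-luciferin (200 μL, 15 mg/mL). Expression at 3 h was taken relative to MC3 or SM-102 LNPs.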
# [4] = Stability of mRNA-LNPs according to storage temperature and duration; type: physicochemical; settings: for Normalized EE % D-1 / Size (nm) D-1 / PDI D-1: day 1; for Normalized EE % D-7 / PDI D-7 / Size (nm) D-7: day 7; for Normalized EE % D-30 / PDI D-30 / Size (nm) D-30: day 30
# Protocol: Stability of fLuc mRNA-LNPs produced using various ionizable lipids according to the method of Example 27, was assessed by storing the LNPs at 4° C. and 25° C. At 1, 7, and 30 days post-manufacture, the size, PDI, and encapsulation efficiency (EE) of each mRNA-LNPs samples were measured using the methods described in Experimental Examples 2 and 3.
# [5] = tested on: IL-6 mRNA level in HEK-293T cells; settings: human
# [6] = tested on: IL-1β mRNA level in HEK-293T cells; settings: human
# [7] = tested on: CCL2 mRNA level in HEK-293T cells; settings: human
# [8] = tested on: CCL3 mRNA level in HEK-293T cells; settings: human
SMILES,EE (%) [1] [%],PDI [2],size (nm) Number [2] [nm],Zeta (mV) [2] [mV],Total flux 1 hour [3],Total flux 3 hours [3],Total flux 6 hours [3],Total flux 48 hours [3],Total flux 72 hours [3],Total flux [3],"Fold increase in total flux at 3 h, MC3 [3]","Fold increase in total flux at 3 h, SM-102 [3]",Normalized EE % D-1 ([4]; fLuc mRNA-LNP stored at 4° C.) [%],Size (nm) D-1 ([4]; fLuc mRNA-LNP stored at 4° C.) [nm],Normalized EE % D-7 ([4]; fLuc mRNA-LNP stored at 4° C.) [%],PDI D-7 ([4]; fLuc mRNA-LNP stored at 4° C.),Size (nm) D-7 ([4]; fLuc mRNA-LNP stored at 4° C.) [nm],Normalized EE % D-30 ([4]; fLuc mRNA-LNP stored at 4° C.) [%],PDI D-30 ([4]; fLuc mRNA-LNP stored at 4° C.),Size (nm) D-30 ([4]; fLuc mRNA-LNP stored at 4° C.) [nm],also measured
"CCCCCCCCCCCOC(=O)CCCCCN(CCCCCCCC(=O)OC(CCCCCCCC)CCCCCCCC)CC(O)CCCCNC(=O)c1ccc[nH]1 (stereo not drawn) [Compound 16, Heptadecan-9-yl 8-((2-hydroxy-6-(1H-pyrrole-2-carboxamido)hexyl)(6-oxo-6-(undecyloxy)hexyl)amino)octanoate]",91,0.101,132,−7.87,1.11E+07,5.26E+07,3.64E+07,1.71E+06,1.40E+06,1.61E+07,4.26,0.47,90.9,132.2,91.5,0.138,137.1,86.9,0.069,141.5,Normalized EE % D-1 ([4]; fLuc mRNA-LNP stored at 25° C.): 90.9%; PDI D-1 ([4]; fLuc mRNA-LNP stored at 25° C.): 0.101; Size (nm) D-1 ([4]; fLuc mRNA-LNP stored at 25° C.): 132.2 nm; Normalized EE % D-7 ([4]; fLuc mRNA-LNP stored at 25° C.): 89.1%; PDI D-7 ([4]; fLuc mRNA-LNP stored at 25° C.): 0.059; Size (nm) D-7 ([4]; fLuc mRNA-LNP stored at 25° C.): 137.7 nm; Normalized EE % D-30 ([4]; fLuc mRNA-LNP stored at 25° C.): 84.4%; PDI D-30 ([4]; fLuc mRNA-LNP stored at 25° C.): 0.093; Size (nm) D-30 ([4]; fLuc mRNA-LNP stored at 25° C.): 145.1 nm; IL-6 Average [5]: 0.97; IL-1β Average [6]: 0.74; CCL2 Average [7]: 0.79; CCL3 Average [8]: 2.31
"CCCCCCCCCCCOC(=O)CCCCCN(CCCCCCCC(=O)OC(CCCCCCCC)CCCCCCCC)CC(O)CCCCNC(=O)c1c[nH]c(O)n1 (stereo not drawn) [Compound 35, Heptadecan-9-yl 8-((2-hydroxy-6-(2-hydroxy-1H-imidazole-4-carboxamido)hexyl)(6-oxo-6-(undecyloxy)hexyl)amino)octanoate]",90,0.040,123,−3.90,1.54E+07,4.49E+07,5.04E+07,7.96E+05,1.27E+06,6.12E+06,3.64,0.40,90.2,123.4,83.7,0.089,130.3,88.6,0.127,141.3,Normalized EE % D-1 ([4]; fLuc mRNA-LNP stored at 25° C.): 90.2%; PDI D-1 ([4]; fLuc mRNA-LNP stored at 25° C.): 0.040; Size (nm) D-1 ([4]; fLuc mRNA-LNP stored at 25° C.): 123.4 nm; Normalized EE % D-7 ([4]; fLuc mRNA-LNP stored at 25° C.): 85.3%; PDI D-7 ([4]; fLuc mRNA-LNP stored at 25° C.): 0.098; Size (nm) D-7 ([4]; fLuc mRNA-LNP stored at 25° C.): 133.3 nm; Normalized EE % D-30 ([4]; fLuc mRNA-LNP stored at 25° C.): 88.3%; PDI D-30 ([4]; fLuc mRNA-LNP stored at 25° C.): 0.076; Size (nm) D-30 ([4]; fLuc mRNA-LNP stored at 25° C.): 123.8 nm; IL-6 Average [5]: 1.14; IL-1β Average [6]: 0.91; CCL2 Average [7]: 1.42; CCL3 Average [8]: 2.30
"CCCCCCCCCCCOC(=O)CCCCCN(CCCCCCCC(=O)OC(CCCCCCCC)CCCCCCCC)CC(O)CCCCNC(=O)c1nccn1C (stereo not drawn) [Compound 36, Heptadecan-9-yl 8-((2-hydroxy-6-(1-methyl-1H-imidazole-2-carboxamido)hexyl)(6-oxo-6-(undecyloxy)hexyl)amino)octanoate]",87,0.073,112,−3.19,1.62E+07,4.51E+07,3.18E+07,3.79E+06,3.09E+06,1.03E+07,3.65,0.40,87.2,111.9,89.1,0.146,114.4,86.6,0.076,120.9,Normalized EE % D-1 ([4]; fLuc mRNA-LNP stored at 25° C.): 87.2%; PDI D-1 ([4]; fLuc mRNA-LNP stored at 25° C.): 0.073; Size (nm) D-1 ([4]; fLuc mRNA-LNP stored at 25° C.): 111.9 nm; Normalized EE % D-7 ([4]; fLuc mRNA-LNP stored at 25° C.): 89.0%; PDI D-7 ([4]; fLuc mRNA-LNP stored at 25° C.): 0.123; Size (nm) D-7 ([4]; fLuc mRNA-LNP stored at 25° C.): 110.6 nm; Normalized EE % D-30 ([4]; fLuc mRNA-LNP stored at 25° C.): 83.8%; PDI D-30 ([4]; fLuc mRNA-LNP stored at 25° C.): 0.092; Size (nm) D-30 ([4]; fLuc mRNA-LNP stored at 25° C.): 119.2 nm; IL-6 Average [5]: 1.30; IL-1β Average [6]: 0.96; CCL2 Average [7]: 1.86; CCL3 Average [8]: 2.40
